Measurements taken from EPA's ToxValDB 9.5.

Tests used:
Rattus norvegicus [1] = tested on: Rattus norvegicus
Rattus norvegicus [2] = settings: short-term, duration: 28 days, oral, gavage, F, Sprague-Dawley
[3] = short-term, duration: 14 days, oral, gavage, M, Sprague-Dawley, Body Weight: Decreases in body weight at 3 and 5 mg/kg/day (18 and 39%)
[4] = short-term, duration: 14 days, oral, gavage, M, Sprague-Dawley, Immunotoxicological: Decreased relative spleen weight and increases in cytokine levels
[5] = short-term, duration: 14 days, oral, gavage, M, Sprague-Dawley, Other Noncancer (Glucose: Increased serum glucose levels (1.11-fold at 1 mg/kg/day and 1.16-fold at 5 mg/kg/day)
[6] = short-term, duration: 14 days, oral, gavage, M, Sprague-Dawley, Reproductive: 85.4% decrease in serum testosterone and […] increase in estradiol levels at 5 mg/kg/day / atrophy of seminiferous tubule …
[7] = short-term, duration: 14 days, oral, gavage, M, Sprague-Dawley, Reproductive: Large vacuoles between testicular Sertoli cells and spermatogonia

In the case of `O=C(O)C(F)(F)C(F)(F)C(F)(F)C(F)(F)C(F)(F)C(F)(F)C(F)(F)C(F)(F)F` [Perfluorononanoic acid], the NOAEL (Rattus norvegicus [1]; acute, duration: 4 hours, inhalation, nose only, M, CD, Body Weight: Reduced 18% 5 days after exposure + Hepatic: 28% increase in absolute liver weight 5 days after exposure to ?67 mg/m3 + …) is reported as 67 mg/m3, the LOAEL (Rattus norvegicus [1]; acute, duration: 4 hours, inhalation, nose only, M, CD, Body Weight: Reduced 18% 5 days after exposure + Respiratory: Lung noise / labored breathing during and after exposure) is reported as 590 mg/m3 and the LOAEL (Rattus norvegicus [1]; acute, duration: 4 hours, inhalation, nose only, M, CD, Death: 14-day LC50) is reported as 820 mg/m3. The LOAEL (Rattus norvegicus [1]; developmental, duration: 20 days, oral, gavage, M/F, Sprague-Dawley, Body Weight: Reduced maternal body weight / approximately 33% on GD 7 and 10% on GD 20 + Developmental: Decreased birth weight in female …) was 5 mg/kg-day, the LOAEL (Rattus norvegicus [1]; [3]) was 3 mg/kg-day and the NOAEL (Rattus norvegicus [1]; [3]) was 1 mg/kg-day. The NOAEL (Rattus norvegicus [1]; short-term, duration: 14 days, oral, gavage, M, Sprague-Dawley, Hepatic: Decreased HDL levels at ?1 mg/kg/day) was 5 mg/kg-day, the NOAEL (Rattus norvegicus [1]; short-term, duration: 14 days, oral, gavage, M, Sprague-Dawley, Hepatic: Hepatocellular vacuolation and lipid accumulation at 5 mg/kg/day) was 5 mg/kg-day and the LOAEL (Rattus norvegicus [1]; short-term, duration: 14 days, oral, gavage, M, Sprague-Dawley, Immunotoxicological: 24% increase in relative thymus weight at 1 mg/kg/day / 20% decrease in thymus weight at 3 or 5 mg/kg/day, increases …) was 1 mg/kg-day. It also gave an LOAEL (Rattus norvegicus [1]; [4]) of 5 mg/kg-day, an NOAEL (Rattus norvegicus [1]; [4]) of 3 mg/kg-day and an LOAEL (Rattus norvegicus [1]; [5]) of 1 mg/kg-day. It also gave an NOAEL (Rattus norvegicus [1]; [5]) of 0.2 mg/kg-day, an LOAEL (Rattus norvegicus [1]; [6]) of 5 mg/kg-day and an NOAEL (Rattus norvegicus [1]; [6]) of 3 mg/kg-day. For the same compound, the LOAEL (Rattus norvegicus [1]; [7]) was 5 mg/kg-day, the NOAEL (Rattus norvegicus [1]; [7]) was 3 mg/kg-day and the LOAEL (Rattus norvegicus [1]; short-term, duration: 14 days, oral, gavage, Wistar, Body Weight: Decreased body weight / magnitude of effect was not reported + Endocrine: Decreased androstenedione and testosterone …) was 5 mg/kg-day. It also gave an LOEL (Rattus norvegicus [2]; Clinical chemistry_Alanine aminotransferase) of 3.12 mg/kg-day, an LOEL (Rattus norvegicus [2]; Clinical chemistry_Albumin) of 1.56 mg/kg-day and an LOEL (Rattus norvegicus [2]; Clinical chemistry_Albumin/globulin ratio) of 1.56 mg/kg-day. It also gave an LOEL (Rattus norvegicus [2]; Clinical chemistry_Alkaline phosphatase) of 3.12 mg/kg-day, an NOEL (Rattus norvegicus [2]; Clinical chemistry_Aspartate aminotransferase) of 25 mg/kg-day and an NOEL (Rattus norvegicus [2]; Clinical chemistry_Cholesterol) of 25 mg/kg-day. It also gave an NOEL (Rattus norvegicus [2]; Clinical chemistry_Creatinine kinase) of 25 mg/kg-day, an LOEL (Rattus norvegicus [2]; Clinical chemistry_Direct bilirubin) of 6.25 mg/kg-day and an LOEL (Rattus norvegicus [2]; Clinical chemistry_Free thyroxine) of 3.12 mg/kg-day. For the same compound, the LOEL (Rattus norvegicus [2]; Clinical chemistry_Globulin) was 1.56 mg/kg-day, the NOEL (Rattus norvegicus [2]; Clinical chemistry_Indirect bilirubin) was 25 mg/kg-day and the LOEL (Rattus norvegicus [2]; Clinical chemistry_Sorbitol dehydrogenase) was 1.56 mg/kg-day. It also gave an LOEL (Rattus norvegicus [2]; Clinical chemistry_Testosterone) of 1.56 mg/kg-day, an NOEL (Rattus norvegicus [2]; Clinical chemistry_Thyroid stimulating hormone) of 25 mg/kg-day and an LOEL (Rattus norvegicus [2]; Clinical chemistry_Total bile acids) of 3.12 mg/kg-day. The NOEL (Rattus norvegicus [2]; Clinical chemistry_Total bilirubin) was 25 mg/kg-day, the LOEL (Rattus norvegicus [2]; Clinical chemistry_Total protein) was 1.56 mg/kg-day and the LOEL (Rattus norvegicus [2]; Clinical chemistry_Total thyroxine) was 3.12 mg/kg-day. The NOEL (Rattus norvegicus [2]; Clinical chemistry_Total triiodothyronine) was 25 mg/kg-day, the NOEL (Rattus norvegicus [2]; Clinical chemistry_Triglycerides) was 25 mg/kg-day and the LOEL (Rattus norvegicus [2]; Gene expression_Acox1) was 1.56 mg/kg-day. For the same compound, the LOEL (Rattus norvegicus [2]; Gene expression_Cyp2b1) was 1.56 mg/kg-day, the LOEL (Rattus norvegicus [2]; Gene expression_Cyp2b2) was 1.56 mg/kg-day and the LOEL (Rattus norvegicus [2]; Gene expression_Cyp4a1) was 1.56 mg/kg-day. The NOEL (Rattus norvegicus [2]; Hematology_Erythrocytes) was 25 mg/kg-day, the NOEL (Rattus norvegicus [2]; Hematology_Hematocrit) was 25 mg/kg-day and the NOEL (Rattus norvegicus [2]; Hematology_Hemoglobin) was 25 mg/kg-day. It also gave an NOEL (Rattus norvegicus [2]; Hematology_Mean corpuscular hemoglobin concentration) of 25 mg/kg-day, an NOEL (Rattus norvegicus [2]; Hematology_Mean corpuscular volume) of 25 mg/kg-day and an NOEL (Rattus norvegicus [2]; Hematology_Platelets) of 25 mg/kg-day. For the same compound, the NOEL (Rattus norvegicus [2]; Hematology_Reticulocytes) was 25 mg/kg-day, the LOEL (Rattus norvegicus [2]; Nonneoplastic effects_Bone marrow - Hypocellularity) was 12.5 mg/kg-day and the LOEL (Rattus norvegicus [2]; Nonneoplastic effects_Forestomach - Epithelium, hyperplasia) was 12.5 mg/kg-day. It also gave an NOEL (Rattus norvegicus [2]; Nonneoplastic effects_Kidney - Nephropathy, chronic progressive) of 25 mg/kg-day, an LOEL (Rattus norvegicus [2]; Nonneoplastic effects_Liver - Hepatocyte, Necrosis) of 12.5 mg/kg-day and an LOEL (Rattus norvegicus [2]; Nonneoplastic effects_Liver - Hepatocyte, cytoplasmic alteration) of 1.56 mg/kg-day. It also gave an LOEL (Rattus norvegicus [2]; Nonneoplastic effects_Liver - Hepatocyte, hypertrophy) of 6.25 mg/kg-day, an NOEL (Rattus norvegicus [2]; Nonneoplastic effects_Liver - Hepatocyte, vacuolization cytoplasmic) of 25 mg/kg-day and an LOEL (Rattus norvegicus [2]; Nonneoplastic effects_Lymph nodes - Mandibular, atrophy) of 12.5 mg/kg-day. For the same compound, the LOEL (Rattus norvegicus [2]; Nonneoplastic effects_Lymph nodes - Mesenteric, atrophy) was 12.5 mg/kg-day, the LOEL (Rattus norvegicus [2]; Nonneoplastic effects_Nose - Olfactory epithelium, degeneration) was 25 mg/kg-day and the NOEL (Rattus norvegicus [2]; Nonneoplastic effects_Nose - Olfactory epithelium, hyperplasia) was 25 mg/kg-day. For the same compound, the NOEL (Rattus norvegicus [2]; Nonneoplastic effects_Nose - Olfactory epithelium, inflammation, suppurative) was 25 mg/kg-day, the NOEL (Rattus norvegicus [2]; Nonneoplastic effects_Nose - Respiratory epithelium, hyperplasia) was 25 mg/kg-day and the NOEL (Rattus norvegicus [2]; Nonneoplastic effects_Nose - Respiratory epithelium, inflammation, chronic active) was 25 mg/kg-day. For the same compound, the LOEL (Rattus norvegicus [2]; Nonneoplastic effects_Spleen - Atrophy) was 12.5 mg/kg-day, the NOEL (Rattus norvegicus [2]; Nonneoplastic effects_Spleen - Extramedullary hematopoiesis, increased) was 25 mg/kg-day and the LOEL (Rattus norvegicus [2]; Nonneoplastic effects_Thymus - Atrophy) was 12.5 mg/kg-day. It also gave an NOEL (Rattus norvegicus [2]; Nonneoplastic effects_Thymus - Lymphocyte, apoptosis) of 25 mg/kg-day, an NOEL (Rattus norvegicus [2]; Nonneoplastic effects_Thyroid gland - Follicular cell hypertrophy) of 25 mg/kg-day and an LOEL (Rattus norvegicus [2]; Organ weights_Liver - Absolute) of 1.56 mg/kg-day. The LOEL (Rattus norvegicus [2]; Organ weights_Liver - Relative) was 1.56 mg/kg-day, the NOEL (Rattus norvegicus [2]; Organ weights_R. adrenal gland - Absolute) was 25 mg/kg-day and the NOEL (Rattus norvegicus [2]; Organ weights_R. adrenal gland - Relative) was 25 mg/kg-day. For the same compound, the LOEL (Rattus norvegicus [2]; Organ weights_R. kidney - Absolute) was 1.56 mg/kg-day, the LOEL (Rattus norvegicus [2]; Organ weights_R. kidney - Relative) was 1.56 mg/kg-day and the LOEL (Rattus norvegicus [2]; Organ weights_Spleen - Absolute) was 3.12 mg/kg-day. It also gave an LOEL (Rattus norvegicus [2]; Organ weights_Spleen - Relative) of 6.25 mg/kg-day and an NOEL (Rattus norvegicus [2]; Organ weights_Thymus - Absolute) of 25 mg/kg-day.
